In ChEMBL document CHEMBL1649399, “Identification of a reduction product of aristolochic acid: implications for the metabolic activation of carcinogenic aristolochic acid” (J Nat Prod, 2010) one finds Activity data, which are given here for seven compounds.

Structures are written as SMILES. The source made the active and inactive calls. The calls are words filed in the database; no cut-off is given here.

The assay concerns Nucleic Acid. The assay can be described thus: Binding affinity to DNA assessed as DNA adduct formation. The class given is nucleic-acid assay.
Regarding `CC(=O)Nc1ccc2c(c1)Cc1ccccc1-2`, the outcome was Active.

For `O=C1Nc2c(/N=c3\[nH]cnc4c3ncn4[C@H]3C[C@H](O)[C@@H](CO)O3)c3ccccc3c3c4c(cc1c23)OCO4`, the result was Active. Next, `O=C1Nc2c(Nc3nc4c(ncn4[C@H]4C[C@H](O)[C@@H](CO)O4)c(=O)[nH]3)c3ccccc3c3c4c(cc1c23)OCO4`: “Active”; `COc1cccc2c1cc1c3c(cc4c(c32)OCO4)C(=O)N1`: “Active”; `O=C1Nc2cc3ccccc3c3c4c(cc1c23)OCO4`: “Active”. Next, `COc1cccc2c1c(/N=c1\[nH]cnc3c1ncn3[C@H]1C[C@H](O)[C@@H](CO)O1)c1c3c(cc4c(c32)OCO4)C(=O)N1`: “Active”; `COc1cccc2c1c(Nc1nc3c(ncn3[C@H]3C[C@H](O)[C@@H](CO)O3)c(=O)[nH]1)c1c3c(cc4c(c32)OCO4)C(=O)N1`: “Active”.
